These results are taken from patent publication US10076519B2 (CYTOKINETICS, INC., priority 2010, dated 2018).

One experiment has as its system rabbit skeletal myofibrils (fast skeletal myofibrils). In words: Activation of fast skeletal myofibrils (PUMA assay, PK/LDH-coupled ATPase at pCa25). The note with it: AC1.4 determined according to the procedure of Example 39; reported as class symbols. The experiment is classed as biochemical. In a few lines:
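Detergent-washed rabbit psoas myofibrils (~90% fast fibres, calcium-regulated) assayed at calcium giving 25% of maximal ATPase rate (pCa25). ADP turnover coupled via pyruvate kinase/lactate dehydrogenase to NADH oxidation, read at 340 nm. Buffer 12 mM PIPES, 2 mM MgCl2, 1 mM DTT, pH 6.8; AC1.4 values derived.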
For the compound `C=Cc1n[nH]c2ccc(-c3ccc(NCC(C)(C)c4ccc(F)cc4)nn3)cc12` [[2-(4-fluorophenyl)-2-methylpropyl][6-(3-vinyl(1H-indazol-5-yl))pyridazin-3-yl]amine], the “Mean AC1.4” value is on record as “A (A=<1 uM)”.

`CC(C)(CNc1ccc(-c2ccc3oc(=O)[nH]c3c2)nn1)c1ccc(F)cc1`: the “Mean AC1.4” value is listed as “B (B=1-10 uM)”.

As to `CC(C)(C)OC(=O)NCCNc1n[nH]c2ccc(-c3ccc(NCC(C)(C)c4ccc(F)cc4)nn3)cc12` [(tert-butoxy)-N-(2-{[5-(6-{[2-(4-fluorophenyl)-2-methylpropyl]amino}pyridazin-3-yl)(1H-indazol-3-yl)]amino}ethyl)carboxamide], the “Mean AC1.4” value was “A (A=<1 uM)”.

For `CC(C)(CNc1ccc(-c2ccc3[nH]nc(N)c3c2)nn1)c1ncccc1F` [[6-(3-amino(1H-indazol-5-yl))pyridazin-3-yl][2-(3-fluoro(2-pyridyl))-2-methylpropyl]amine], the “Mean AC1.4” value is “B (B=1-10 uM)”.

On to `NC(=O)c1cccc(-c2ccc(NCCc3cccc(Cl)c3)nn2)c1`, for which the “Mean AC1.4” value was “B (B=1-10 uM)”.

As for `Nc1n[nH]c2ccc(-c3ccc(NCC4(c5ccccc5)CCC4)nn3)cc12`, the “Mean AC1.4” value is given as “A (A=<1 uM)”.

On to `CC(C)(CNc1ccc(-c2cccc(C(N)=O)c2)nn1)c1ccc(Cl)cc1` [3-(6-{[2-(4-chlorophenyl)-2-methylpropyl]amino}pyridazin-3-yl)benzamide], for which the “Mean AC1.4” value is given as “B (B=1-10 uM)”.

Staying with this experiment, now noted: median AC1.4 class, procedure of Example 39.
For the compound `CN(C)c1n[nH]c2ccc(-c3ccc(NCC(C)(C)c4ccc(F)cc4)nn3)cc12` [[5-(6-{[2-(4-fluorophenyl)-2-methylpropyl]amino}pyridazin-3-yl)(1H-indazol-3-yl)]dimethylamine], the “Mean AC1.4” value was “B (B=1-10 uM)”.

On to `O=C(CO)NCc1cnc(-c2ccc(NCC3(c4ncccc4F)CCC3)nn2)s1` [N-({2-[6-({[(3-fluoro(2-pyridyl))cyclobutyl]methyl}ami-no)pyridazin-3-yl](1,3-thiazol-5-yl)}methyl)-2-hydroxyacetamide], for which the “Mean AC1.4” value is “A (A=<1 uM)”.

Take `CCOC(=O)c1ccc(NCC2(c3ncccc3F)CCC2)nn1`: the “Mean AC1.4” value is given as “D (D=>20 uM)”.

As for `NC(=O)c1cccc(-c2ccc(NC(=O)c3ccccc3)nn2)c1` [3-[6-(phenylcarbonylamino)pyridazin-3-yl]benzamide], the “Mean AC1.4” value is reported as “D (D=>20 uM)”.

On to `OC(O)(c1cnc(-c2ccc(NCC3(c4ncccc4F)CCC3)nn2)s1)C(F)(F)F` [2,2,2-trifluoro-1-{2-[6-({[(3-fluoro(2-pyridyl))cyclobutyl]methyl}ami-no)pyridazin-3-yl](1,3-thiazol-5-yl)}ethane-1,1-diol], for which the “Mean AC1.4” value is “B (B=1-10 uM)”.

Regarding `CC(C)(O)C(N)c1ccc(-c2ccc(NCC3(c4ncccc4F)CCC3)nn2)cc1` (stereo not shown), the “Mean AC1.4” value is on record as “D (D=>20 uM)”.

As to `CC(C)(CNc1ccc(-c2ccc3[nH]nc(NCCOCc4ccccc4)c3c2)nn1)c1ccc(F)cc1` [[2-(4-fluorophenyl)-2-methylpropyl][6-(3-{[2-(phenylmethoxy)ethyl]amino}(1H-indazol-5-yl))pyridazin-3-yl]amine], the “Mean AC1.4” value is “A (A=<1 uM)”.

Turning to `Fc1cccnc1C1(CNc2ccc(-c3nc4ccc(Cl)nc4s3)nn2)CCC1` [[6-(5-chloro(1,3-thiazolino[5,4-b]pyridin-2-yl))pyridazin-3-yl]{[(3-fluoro(2-pyridyl))cyclobutyl]methyl}amine], the “Mean AC1.4” value is “C (C=10-20 uM)”.

Consider `CS(=O)(=O)Nc1n[nH]c2ccc(-c3ccc(NC[C@]4(c5ncccc5F)C[C@H](F)C4)nn3)cc12` [{5-[6-({[3-fluoro-1-(3-fluoro(2-pyridyl))cyclobutyl]methyl}ami-no)pyridazin-3-yl](1H-indazol-3-yl)}(methylsulfonyl)amine], for which the “Mean AC1.4” value is reported as “A (A=<1 uM)”.

For `NC(=O)c1csc2nc(-c3ccc(NC[C@]4(c5ncccc5F)C[C@H](F)C4)nn3)cn12` [6-[6-({[3-fluoro-1-(3-fluoro(2-pyridyl))cyclobutyl]methyl}ami-no)pyridazin-3-yl]imidazo[2,1-b]1,3-thiazoline-3-carboxamide], the “Mean AC1.4” value is given as “A (A=<1 uM)”.

Staying with this experiment, now noted: median AC1.4 reported as class; procedure of Example 39.
In the case of `CC(C)(Nc1ccc(-c2cn3c(C(N)=O)csc3n2)nn1)c1ncccc1Cl` [6-(6-{[1-(3-chloro(2-pyridyl))-isopropyl]amino}pyridazin-3-yl)imidazo[2,1-b]1,3-thiazoline-3-carboxamide], the “Mean AC1.4” value was “B (B=1-10 uM)”.

With `O=C(NC1COC1)c1cccc(-c2ccc(NC[C@]3(c4ncccc4F)C[C@H](F)C3)nn2)c1` [{3-[6-({[3-fluoro-1-(3-fluoro(2-pyridyl))cyclobutyl]methyl}ami-no)pyridazin-3-yl]phenyl}-N-oxetan-3-ylcarboxamide], the “Mean AC1.4” value is “B (B=1-10 uM)”.

For `NC(=O)N1CCc2nc(-c3ccc(NCC4(c5ncccc5F)CCC4)nn3)sc2C1` [2-[6-({[(3-fluoro-2-pyridyl)cyclobutyl]methyl}ami-no)pyridazin-3-yl]-4,5,6,7-tetrahydro-1,3-thiazolo[5,4-c]pyridine-5-carboxamide], the “Mean AC1.4” value is “D (D=>20 uM)”.

Turning to `N#Cc1cc(Br)cc(-c2ccc(NCC3(c4ncccc4F)CCC3)nn2)c1O` [5-bromo-3-[6-({[(3-fluoro(2-pyridyl))cyclobutyl]methyl}ami-no)pyridazin-3-yl]-2-hydroxybenzenecarbonitrile], the “Mean AC1.4” value is recorded as “A (A=<1 uM)”.

In the case of `O=C(NC1CCC1)c1ccc(F)c(-c2ccc(NC[C@]3(c4ncccc4F)C[C@H](F)C3)nn2)c1` [N-cyclobutyl{4-fluoro-3-[6-({[3-fluoro-1-(3-fluoro(2-pyridyl))cyclobutyl]methyl}ami-no)pyridazin-3-yl]phenyl}carboxamide], the “Mean AC1.4” value was “A (A=<1 uM)”.

Turning to `CC(=O)N1CCc2nc(-c3ccc(NCC4(c5ncccc5F)CCC4)nn3)sc2C1` [5-acetyl-2-[6-({[(3-fluoro(2-pyridyl))cyclobutyl]methyl}ami-no)pyridazin-3-yl]-4,5,6,7-tetrahydro-1,3-thiazolo[5,4-c]pyridine], the “Mean AC1.4” value was “D (D=>20 uM)”.

Regarding `Cc1cc(NCC2(c3ncccc3F)CCC2)nnc1-c1cccc(C#N)c1` [3-[6-({[(3-fluoro(2-pyridyl))cyclobutyl]methyl}ami-no)-4-methylpyridazin-3-yl]benzenecarbonitrile], the “Mean AC1.4” value is reported as “C (C=10-20 uM)”.

On to `CNc1ccc(-c2ccc(NC[C@]3(c4ncccc4F)C[C@H](F)C3)nn2)cc1C(=O)OC` [methyl 5-[6-({[3-fluoro-1-(3-fluoro(2-pyridyl))cyclobutyl]methyl}ami-no)pyridazin-3-yl]-2-(methylamino)benzoate], for which the “Mean AC1.4” value is “B (B=1-10 uM)”.

Consider `OCc1cccc(-c2ccc(NC[C@]3(c4ncccc4F)C[C@H](F)C3)nn2)c1` [{3-[6-({[3-fluoro-1-(3-fluoro(2-pyridyl))cyclobutyl]methyl}ami-no)pyridazin-3-yl]phenyl}methan-1-ol], for which the “Mean AC1.4” value is “B (B=1-10 uM)”.

`Fc1cccnc1C1(CNc2ccc(-c3ncc(CN4CCNCC4)s3)nn2)CCC1` [{[(3-fluoro(2-pyridyl))cyclobutyl]methyl}{6-[5-(piperazinylmethyl)(1,3-thiazol-2-yl)]pyridazin-3-yl}amine]: the “Mean AC1.4” value was “B (B=1-10 uM)”.

With `O=C(NCCF)c1ccc(F)c(-c2ccc(NC[C@]3(c4ncccc4F)C[C@H](F)C3)nn2)c1` [N-(2-fluoroethyl){4-fluoro-3-[6-({[3-fluoro-1-(3-fluoro(2-pyridyl))cyclobutyl]methyl}ami-no)pyridazin-3-yl]phenyl}carboxamide], the “Mean AC1.4” value is “B (B=1-10 uM)”.
